Assay results reported in patent US20090155797A1, “Methods For Generating Enhanced Antibody-Producing Cell Lines With Improved Growth Characteristics” (priority 2002, published 2009).

Tested on: H34 cells
Assay: Antibody production by ELISA from H34 hybridoma cells incubated with protease inhibitor
Assay type: cell-based, mouse
Details: H34 cells incubated 1-3 days with 4 mM AEBSF in 96 well plates, supernatant ELISA; untreated H34 4.3 ug/ml

NCCc1ccc(S(=O)(=O)F)cc1 [AEBSF, 4-(2-aminoethyl)-benzenesulfonyl floride]
ANTIBODY PRODUCTION TREATED: 0.031 µg/mL
